In patent US10195156B2, “Compounds and compositions for intracellular delivery of agents” (ModernaTX, Inc., priority 2015, dated 2019):
Like-named read-outs stand apart in the source and are kept apart here.

How the values were obtained:
[1] = tested on: GFP expression in liver cells; test: Mouse liver immunohistochemistry (IHC) with GFP mRNA; assay type: in vivo; settings: FIG. 11, i.v., 0.5 mpk, 6 h (MC3, CD-1) or 8 h (Compound 4, LDLR knockout)
Description: FIG. 11 is a pair of images comparing the results of a mouse liver immunohistochemistry (IHC) using mRNA expressing green fluorescent protein (GFP) after administration of nanoparticle compositions containing Compound 4 and MC3.
FIG. 16 is a graph showing GFP levels in the livers of LDLR knockout mice at 30 min to 24 h after intravenous administration of an eGFP RNA in a lipid composition containing Compound 4. The liver GFP levels were determined via IHC. The square markers represent the number of GFP positive cells following administration of a dose of 0.1 mpk of the composition. The circular markers represent the number of GFP positive cells following administration of a dose of 0.5 mpk of the composition.

[2] = tested on: Luc expression; test: ApoE dependence of luciferase expression (ApoE knockout vs. wild-type mice); assay type: in vivo; settings: 0.5 mpk, 6 h
Text: FIG. 17 is a pair of graphs showing the ApoE dependence of luciferase (“Luc”) expression following administration of a composition containing Luc mRNA and Compound 4 to mice at a dose 0.5 mpk. The expression following administration of a composition containing Luc mRNA and MC3 is presented for comparison. […] The % change in Luc expression in livers of ApoE knockout vs. wild-type mice (i.e., (WT mean expression-KO mean expression)/WT mean expression]*100%) was 91.9% for Compound 4 and 97.5% for MC3. […] The % change in expression in spleens of ApoE knockout vs. wild-type mice was 4.34% for Compound 4 and 72.2% for MC3. Numbers 1-4 refer to the following: 1: Composition containing Compound 4, administered to ApoE knockout mice; 2: Composition containing Compound 4, administered to wild-type mice; 3: Composition containing MC3, administered to ApoE knockout mice; 4: Composition containing MC3, administered to wild-type mice.

[3] = tested on: LDLr−/− mice; test: Expression in LDLr−/− mice (LDLr dependence); assay type: in vivo; settings: FIG. 9, FIG. 10
[4] = tested on: LDL-c; test: LDL levels in LDLr−/− mice after mRNA encoding the LDL receptor; assay type: in vivo, LDLR knockout mice; settings: Mus musculus; Table 7b; LDLr−/− mice, 0.5 mpk, LDLr; read-out: LDL levels lipid/untreated LDLr−/− mice 0.5 mpk, LDLr
[5] = pKa of nanoparticle compositions; assay type: physicochemical; settings: Table 1; rows without footnote mark
[6] = tested on: hEPO mRNA expression; test: Expression of hEPO in rats after intravenous administration; assay type: in vivo; settings: hEPO expression in S.D. rats
Description: PBS (phosphate buffered saline) is used as control.
Formulations were prepared according to Table 5 and included mRNA encoding hEPO.
[…] After the 48 hour time point, livers and spleens were harvested and frozen.

[7] = Encapsulation efficiency of RNA (QUANT-IT RIBOGREEN RNA assay); assay type: physicochemical; settings: Table 1; rows without footnote mark
Outline: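 Nanoparticle samples diluted to ~5 μg/mL RNA in TE buffer (pH 7.5), incubated with or without 2% Triton X-100 solution at 37 °C for 15 min, then RiboGreen added. Fluorescence read at ~480/520 nm, blank-subtracted; free RNA % = intact over Triton-disrupted signal.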

[8] = tested on: hEPO mRNA expression; test: hEPO levels in non-human primates; assay type: in vivo; settings: FIG. 10, up to ~50 h
Description: FIG. 10 is a graph showing hEPO levels in non-human primates up to ˜50 h after administration of a nanoparticle composition containing Compound 4, compared to a composition containing MC3.
The tolerability and efficacy of nanoparticle compositions to non-human primates is evaluated in Cynomolgus monkeys. Monkeys are administered an optimized nanoparticle composition including an mRNA encoding hEPO once weekly for four weeks. The levels of hEPO protein, mRNA, and cytokine profiles are measured using ELISA-based techniques before and 2, 6, 12, 24, 48, 72, and 120 hours after each administration.

[9] = Lipid levels in liver and spleen 48 hours after administration; assay type: in vivo, rats; settings: for concentration at 48 h: Sprague-Dawley, rat, intravenous
Outline: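 Rats (n=3 or 6) received lipid nanoparticle formulations intravenously at 0.2 mg/kg or 0.5 mg/kg. Liver and spleen were harvested and frozen 48 h after dosing, and the lipid amount remaining in each tissue was measured and expressed as a fraction of the dose.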

[10] = Particle size and polydispersity index of nanoparticle compositions (Zetasizer Nano ZS); assay type: physicochemical; settings: Table 1
Outline: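 Particle size and PDI were measured on a Zetasizer Nano ZS with the nanoparticle compositions dispersed in 1×PBS.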

pKa [5]: 7.12 | EE (%) [7]: 96.78% | concentration at 48 h ([9]; liver, 48 hours after administration, read-out: Lipid in liver): 22000 ng/g | concentration at 48 h ([9]; spleen, 48 hours after administration, read-out: Lipid in spleen): 5340 ng/g | % remaining dose in liver ([9]; liver, 48 hours after administration): 38% | % dose remainng Rat liver (48 h) ([9]; rat liver, 48 h): 37.82% | % remaining dose in spleen ([9]; spleen, 48 hours after administration): 0.61% | PDI ([10]; rows without footnote mark): 0.120 | Size (nm) ([10]; rows without footnote mark (lipid:DOPE:cholesterol:PEG-DMG 40:20:38.5:1.5, Luc mRNA; MC3 standard formulation)): 89.7 nm
SMILES: CCCCCCCCCN(CCCCCCCCC)CCN(CCCCCCCCC)CC(=O)N1CCN(C(=O)CN(CCCCCCCCC)CCCCCCCCC)CC1 [Compound 4, 2-(Dinonylamino)-1-(4-(N-(2-(dinonylamino)ethyl)-N-nonylglycyl)piperazin-1-yl)ethan-1-one]
GFP protein expression in liver cell types (in words) [1]: less protein expression in Kupffer cells | % change in Luc expression in livers of ApoE knockout vs. wild-type mice ([2]; FIG. 17 Graph A, liver): 91.9% | % change in expression in spleens of ApoE knockout vs. wild-type mice ([2]; FIG. 17 Graph B, spleen): 4.34% | LDLr dependence of the lipid (in words) [3]: LDLr independent lipid | response vs control in vivo at 0.5 mg/kg [4]: 54% | AUC (0.1 mpk) ([6]; 0.1 mpk): 2.12E+06 | AUC/MC3 0.1 mpk ([6]; 0.1 mpk, relative to MC3): 1.3 | AUC (1 mpk) ([6]; 1 mpk): 6.79E+07 | AUC/MC3 1 mpk ([6]; 1 mpk, relative to MC3): 0.58 | expression of hEPO compared to MC3 [8]: 3 fold
